Read-outs that look alike come from different tables or passages of the source.
Key:
[1] = test system: T- and B- lymphocyte isolated from mouse spleens; experiment: Lymphocyte Blastogenesis Assay; assay type: in vivo; settings: for RPMI CONTROL: no mitogen (Table 7); for activation at 25 mg/kg / activation at 50 mg/kg / activation at 100 mg/kg / activation at 12.5 mg/kg / activation at 200 mg/kg: Mus musculus, Lymphocyte; for RPMI: no mitogen (Table 8)
Excerpt: This assay measures the ability of the compound under test to affect DNA synthesis and mitosis of T- and B- lymphocyte isolated from mouse spleens.
Mitogens are substances which stimulate DNA synthesis and mitosis. The mitogens used in these studies were phytohemaglutinin (PHA) which is isolated from the red kidney bean and concanavalin-A (Con-A) which is isolated form the jack bean. Con-A binds to specific receptors (glycoproteins) containing mannosyl or glycosyl moieties and stimulates all murine T-cells to synthesize DNA, divide, and release lymphokines. Con-A in a soluble form allows distinction between T- and B-cells in the mouse, because although both T- and B-cells can bind 106 molecules of Con-A per cell, only T-cells are stimulated when this lectin is presented in a soluble form. PHA stimulates only subpopulations, T-2 cells, of T-cells in the mouse. Also, Con-A stimulates the production of cytokines such as Interleukin-2 (IL-2). In humans, both T- and B-cells are probably stimulated. The activation of B-cells by PHA may be indirect and mediated by the release of soluble mediators from PHA-activated T-cells.
The lymphocyte blastogenesis test is a method to assess the ability of immunocompetent T- or B-cells to respond to a polyclonal mitogen (i.e. PHA or Con-A) or a specific antigen. It may be performed on lymphocytes obtained from mice treated with immunostimulators in vivo or the entire assay can be performed in vitro. The assay as described below uses minimal doses of polyclonal mitogens to induce blastogenesis (proliferation measure by DNA synthesis), in order to be able to assess the phenomena of amplification.
1. Sacrifice two mice/experimental group by cervical dislocation.
14. […]
15. Include in the experiment a control plate which contains the same cells group as above, but receive a 0.1 ml of media instead of mitogen.
18. After 48 hours all wells receive 0.025 mls of a 0.4 microcurie/ml solution of C-14 methyl thymidine and incubate at 37 C, 5% CO-2 for 18 hours.

[2] = test system: plaque forming cells, antibody specific to sheep red blood cells; experiment: Jerne Hemolytic Plaque Assay; assay type: in vivo, mice
Method: This assay measures the IgM or IgG isotypes of specific antibody produced by antigen used to immunize the mice. […] The direct assay detects IgM and the indirect assay detects IgG-specific antibody.
Washed spleen cells are added to an agarose (FMC, Rockland, Me.) preparation containing sheep red blood cells (SRBC) and guinea pig complement. A drop of this mixture is transferred to a small petri dish; a cover slip is then placed over the drop to flatten it. The agarose prep is allowed to solidify. Then, the dishes are placed in a small humidified changer inside a CO-2 incubator overnight.
Small pinpoint cleared areas (plaques) will be observed under the cover slip. The cleared areas are caused by antibody, specific to the SRBC's being released by stimulated spleen cells and in conjunction with the complement, lyse surrounding SRBC's. These plaque forming cells (PFC's) are counted, and calculations are performed to obtain PFC's per […] spleen cells.
1. Spleens are harvested from mice according to a standard procedure and adjusted to a final concentration of 20% in […].
14. Count and record the number of hemolytic plaques per plate. Average plaque counts between the duplicate sets. Multiply the average number of plaques per group by 2.5 to obtain the number of plaque forming cells per million spleen cells.

O=C1CCCC(C2(O)C(=O)OC3C(O)COC32O)C1 (single isomer, unassigned) [KCBL-A]
CON-A 6 ug/ml ([1]; 12.5 mg/kg (Table 7)): 3412.0 counts per minute
PHA 14 ug/ml ([1]; 12.5 mg/kg (Table 7)): 1450.0 counts per minute
RPMI CONTROL ([1]; 12.5 mg/kg): 94.0 counts per minute
CON-A 6 ug/ml ([1]; 25.0 mg/kg (Table 7)): 5657.0 counts per minute
PHA 14 ug/ml ([1]; 25.0 mg/kg (Table 7)): 2178.0 counts per minute
RPMI CONTROL ([1]; 25.0 mg/kg): 77.0 counts per minute
CON-A 6 ug/ml ([1]; 50.0 mg/kg (Table 7)): 5059.0 counts per minute
PHA 14 ug/ml ([1]; 50.0 mg/kg (Table 7)): 2369.0 counts per minute
RPMI CONTROL ([1]; 50.0 mg/kg): 50.0 counts per minute
CON-A 6 ug/ml ([1]; 100.0 mg/kg (Table 7)): 4104.0 counts per minute
PHA 14 ug/ml ([1]; 100.0 mg/kg (Table 7)): 2384.0 counts per minute
RPMI CONTROL ([1]; 100.0 mg/kg): 76.0 counts per minute
activation at 25 mg/kg ([1]; 25.0 mg/kg (Table 7), read-out: % INCREASE (CON-A 6 ug/ml)): 56.6%
activation at 25 mg/kg ([1]; 25.0 mg/kg (Table 7), read-out: % INCREASE (PHA 14 ug/ml)): 26.1%
activation at 50 mg/kg ([1]; 50.0 mg/kg (Table 7), read-out: % INCREASE (CON-A 6 ug/ml)): 40%
activation at 50 mg/kg ([1]; 50.0 mg/kg (Table 7), read-out: % INCREASE (PHA 14 ug/ml)): 37.1%
activation at 100 mg/kg ([1]; 100.0 mg/kg (Table 7), read-out: % INCREASE (CON-A 6 ug/ml)): 13.6%
activation at 100 mg/kg ([1]; 100.0 mg/kg (Table 7), read-out: % INCREASE (PHA 14 ug/ml)): 38%
% INCREASE ([2]; 12.5 mg/ml (Table 10)): 100%
PFC ([2]; 12.5 mg/ml (Table 10)): 112.00 PFC/1 MILLION CELLS
% INCREASE ([2]; 25 mg/kg (Table 10)): 104%
PFC ([2]; 25 mg/kg (Table 10)): 115.00 PFC/1 MILLION CELLS
% INCREASE ([2]; 50 mg/kg (Table 10)): 193%
PFC ([2]; 50 mg/kg (Table 10)): 165.00 PFC/1 MILLION CELLS
% INCREASE ([2]; 100 mg/kg (Table 10)): 318%
PFC ([2]; 100 mg/kg (Table 10)): 235.00 PFC/1 MILLION CELLS
% INCREASE ([2]; 200 mg/kg (Table 10)): 215%
PFC ([2]; 200 mg/kg (Table 10)): 177.50 PFC/1 MILLION CELLS

O=C1CCCC(C2(O)C(=O)OC3C(O)COC32O)C1 (single isomer, unassigned) [KCBL-B]
CON-A 2.25 ug/ml ([1]; 12.5 mg/kg (Table 8)): 865.6 counts per minute
PHA 14.0 ug/ml ([1]; 12.5 mg/kg (Table 8)): 1733.1 counts per minute
RPMI ([1]; 12.5 mg/kg): 67.6 counts per minute
CON-A 2.25 ug/ml ([1]; 25 mg/kg (Table 8)): 1309.6 counts per minute
PHA 14.0 ug/ml ([1]; 25 mg/kg (Table 8)): 3512.1 counts per minute
RPMI ([1]; 25 mg/kg): 84.3 counts per minute
CON-A 2.25 ug/ml ([1]; 50 mg/kg (Table 8)): 1130.6 counts per minute
PHA 14.0 ug/ml ([1]; 50 mg/kg (Table 8)): 2540.7 counts per minute
RPMI ([1]; 50 mg/kg): 56.2 counts per minute
CON-A 2.25 ug/ml ([1]; 100 mg/kg (Table 8)): 1736.7 counts per minute
PHA 14.0 ug/ml ([1]; 100 mg/kg (Table 8)): 3515.4 counts per minute
RPMI ([1]; 100 mg/kg): 84.9 counts per minute
CON-A 2.25 ug/ml ([1]; 200 mg/kg (Table 8)): 2008.0 counts per minute
PHA 14.0 ug/ml ([1]; 200 mg/kg (Table 8)): 3305.8 counts per minute
RPMI ([1]; 200 mg/kg): 52.0 counts per minute
activation at 12.5 mg/kg ([1]; 12.5 mg/kg (Table 8), read-out: % INCREASE (CON-A 2.25 ug/ml)): 123%
activation at 12.5 mg/kg ([1]; 12.5 mg/kg (Table 8), read-out: % INCREASE (PHA 14.0 ug/ml)): 12.1%
activation at 25 mg/kg ([1]; 25 mg/kg (Table 8), read-out: % INCREASE (CON-A 2.25 ug/ml)): 237%
activation at 25 mg/kg ([1]; 25 mg/kg (Table 8), read-out: % INCREASE (PHA 14.0 ug/ml)): 127%
activation at 50 mg/kg ([1]; 50 mg/kg (Table 8), read-out: % INCREASE (CON-A 2.25 ug/ml)): 191%
activation at 50 mg/kg ([1]; 50 mg/kg (Table 8), read-out: % INCREASE (PHA 14.0 ug/ml)): 64.4%
activation at 100 mg/kg ([1]; 100 mg/kg (Table 8), read-out: % INCREASE (CON-A 2.25 ug/ml)): 347%
activation at 100 mg/kg ([1]; 100 mg/kg (Table 8), read-out: % INCREASE (PHA 14.0 ug/ml)): 128%
activation at 200 mg/kg ([1]; 200 mg/kg (Table 8), read-out: % INCREASE (CON-A 2.25 ug/ml)): 418%
activation at 200 mg/kg ([1]; 200 mg/kg (Table 8), read-out: % INCREASE (PHA 14.0 ug/ml)): 114%
% INCREASE ([2]; 25 mg/kg (Table 10)): 39%
PFC ([2]; 25 mg/kg (Table 10)): 66.25 PFC/1 MILLION CELLS
% INCREASE ([2]; 50 mg/kg (Table 10)): 218%
PFC ([2]; 50 mg/kg (Table 10)): 151.25 PFC/1 MILLION CELLS
% INCREASE ([2]; 100 mg/kg (Table 10)): 232%
PFC ([2]; 100 mg/kg (Table 10)): 157.5 PFC/1 MILLION CELLS
% INCREASE ([2]; 200 mg/kg (Table 10)): 171%
PFC ([2]; 200 mg/kg (Table 10)): 128.75 PFC/1 MILLION CELLS

O=C1CCC(C2(O)C(=O)OC3C(O)COC32O)C1 (single isomer, unassigned) [L-KCPBL-A]
% INCREASE ([2]; 25 mg/kg (Table 12)): 233%
PFC ([2]; 25 mg/kg (Table 12)): 162.5 PFC/1 MILLION CELLS
% INCREASE ([2]; 50 mg/kg (Table 12)): 151%
PFC ([2]; 50 mg/kg (Table 12)): 122.5 PFC/1 MILLION CELLS
% INCREASE ([2]; 100 mg/kg (Table 12)): 120%
PFC ([2]; 100 mg/kg (Table 12)): 107.5 PFC/1 MILLION CELLS
% INCREASE ([2]; 200 mg/kg (Table 12)): 202%
PFC ([2]; 200 mg/kg (Table 12)): 147.5 PFC/1 MILLION CELLS
antibody production / PFC, dose dependence ([2]; vs control): stimulates T-dependent antibody production, but not in a dose response fashion

From patent US5098933A, “Pharmaceutically useful Michael addition products of unsaturated aldehydes and ketones and ascorbic acid” (Theracel Corporation, priority 1990, dated 1992)
